target: T1, human GluN1^FA,TL/GluN3A receptors (Homo sapiens, UniProt Q8TCU5); experiment: Two-electrode voltage-clamp recordings of GluN1^FA,TL/GluN3A receptors in Xenopus oocytes; type: cell-based; details: 30 μM drug
T1 construct: Human GluN3A (NP_597702.2) and rat GluN3B (NP_579842.2) were synthesized and subcloned into SP6 plasmids; expressed in transfected cells; host or cells: Xenopus laevis oocytes, cRNA injection (GluN1:GluN3 1:3)
Text: cDNA encoding human wild-type (WT) GluN1-1a (GenBank accession numbers NP_015566, hereafter GluN1) and rat GluN1-1a (NP_058706.1) were synthesized and subcloned into pGEMHE plasmid; some experiments used the rat splice variant GluN1-4a (NP_001257531.1). Human GluN3A (NP_597702.2) and rat GluN3B (NP_579842.2) were synthesized and subcloned into SP6 plasmids. For most experiments, human GluN1 was co-expressed with human GluN3A, except for mutagenesis experiments where rat GluN1 was co-expressed with human GluN3A. Rat GluN1-4a was always expressed with rat GluN3B.
Defolliculated Xenopus laevis oocytes (stage V-VI) were obtained from Ecocyte BioScience (Austin, Texas), or prepared from commercially available Xenopus ovaries (Xenopus 1, Dexter, MI) as previously described (Hansen, et al., Mol. Pharmacol., 2013). A Drummond Nanoject II (Broomall, PA) was used to inject oocytes with cRNAs encoding GluN1 and GluN3 at a 1:3 ratio in RNase-free water. The cRNA was diluted as needed to give responses with amplitudes ranging between 200-2000 nA (0.2-10 ng total cRNA). Following cRNA injection, the oocytes were stored at 15-19° C. in Barth's solution that contained (in mM) 88 NaCl, 2.4 NaHCO3, 1 KCl, 0.33 Ca(NO3)2, 0.41 CaCl2), 0.82 MgSO4, and 5 Tris-HCl (pH 7.4 with NaOH), supplemented with 1 μg/ml streptomycin (Invitrogen, Carlsbad, CA) and 100 μg/ml gentamicin (Fisher Scientific, Pittsburgh, PA). Recordings were performed 2-5 days following cRNA microinjection at room temperature (23° C.) using a two-electrode voltage-clamp amplifier (OC725, Warner Instrument, Hamilton, CT). The signal was low-pass filtered at 10-20 Hz (4-pole, −3 dB Bessel) and digitized at the Nyquist rate using PCI-6025E or USB-6212 BNC data acquisition boards (National Instruments, Austin, TX) using EasyOocyte (http://www.easyoocyte.io/). Oocytes were placed in a custom-made chamber and continuously perfused (2.5 ml/min) with oocyte recording solution containing (in mM) 90 NaCl, 1 KCl, 10 HEPES, 0.5-1.0 BaCl2, and 0.01 EDTA (pH 7.4 with NaOH). Solutions were applied by gravity, and solution exchange was controlled through a rotary valve (Hamilton, Reno, NV). Recording electrodes were filled with 0.3-3.0 M KCl, and current responses were recorded at a holding potential of −40 mV.
Response (%)=(100−minimum)/(1+([concentration]/IC50)^nH)+minimum (2) • where nH is the Hill slope, IC50 is the concentration that produces a half-maximal effect, and minimum is the degree of residual inhibition at a saturating concentration of the negative allosteric modulator.
The afore-referenced compounds were screened in the same assay as EU1180-438 to determine their effects on hGluN1^FA,TL/hGluN3A receptors. Selected compounds that inhibited by more than 20% at the concentration at which they were initially evaluated (either 10 or 30 μM) were analyzed further, and a dose-response curve was generated to determine their IC50 values.

T1 sequence (Q8TCU5 24-1115, other chains not shown): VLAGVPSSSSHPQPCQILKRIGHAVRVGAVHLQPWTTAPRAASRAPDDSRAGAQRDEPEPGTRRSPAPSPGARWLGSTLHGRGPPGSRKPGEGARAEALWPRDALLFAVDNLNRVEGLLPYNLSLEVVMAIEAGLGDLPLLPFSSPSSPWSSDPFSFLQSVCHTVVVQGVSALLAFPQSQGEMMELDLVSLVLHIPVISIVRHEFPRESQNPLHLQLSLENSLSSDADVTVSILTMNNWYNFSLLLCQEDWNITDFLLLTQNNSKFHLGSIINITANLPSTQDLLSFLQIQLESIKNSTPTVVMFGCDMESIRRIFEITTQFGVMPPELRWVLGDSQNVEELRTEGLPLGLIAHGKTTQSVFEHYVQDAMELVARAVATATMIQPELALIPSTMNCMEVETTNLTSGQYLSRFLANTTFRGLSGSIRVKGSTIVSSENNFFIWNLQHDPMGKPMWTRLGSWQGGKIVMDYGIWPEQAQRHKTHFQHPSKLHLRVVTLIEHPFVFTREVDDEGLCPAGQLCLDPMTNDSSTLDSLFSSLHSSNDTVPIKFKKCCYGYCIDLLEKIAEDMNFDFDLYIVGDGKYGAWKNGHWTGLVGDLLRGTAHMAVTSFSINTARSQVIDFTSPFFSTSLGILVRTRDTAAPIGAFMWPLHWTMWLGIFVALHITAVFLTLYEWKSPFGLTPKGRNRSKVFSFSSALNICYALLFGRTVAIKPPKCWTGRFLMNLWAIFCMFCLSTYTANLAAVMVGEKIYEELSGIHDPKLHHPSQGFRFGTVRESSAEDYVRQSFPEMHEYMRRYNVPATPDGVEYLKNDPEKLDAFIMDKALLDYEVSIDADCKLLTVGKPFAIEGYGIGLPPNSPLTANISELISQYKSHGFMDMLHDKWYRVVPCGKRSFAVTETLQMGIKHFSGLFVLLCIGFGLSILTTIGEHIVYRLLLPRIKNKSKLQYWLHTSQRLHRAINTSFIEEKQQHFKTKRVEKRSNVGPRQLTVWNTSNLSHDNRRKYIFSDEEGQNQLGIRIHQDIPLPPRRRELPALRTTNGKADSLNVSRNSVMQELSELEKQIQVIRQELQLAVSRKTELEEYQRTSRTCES

Question: How did the “hGluN1^FA,TL/hGluN3A (100 × Idrug/Icontrol at 30 μM drug)” value turn out when COc1ccc(OCC(c2ccc(OC)cc2)N2Cc3ccc(Cl)cc3C2=O)cc1 (stereo not drawn) [EU1180-516, 6-Chloro-2-(2-(4-methoxyphenoxy)-1-(4-methoxyphenyl)ethyl)isoindolin-1l-one] was run?
Answer: The value was 44%.

same assay, conditions: hGluN1^FA,TL/hGluN3A; read-out: IC50

Question: With CCOc1ccc(OCC(c2ccc(OC(C)C)cc2)N2Cc3ccc(F)cc3C2=O)cc1 (stereo not drawn) [EU1180-590, 6-fluoro-2-(2-(4-ethoxyphenoxy)-1-(4-isopropoxyphenyl)ethyl)isoindolin-1-one] as the molecule, how does the IC50 read?
Answer: Its IC50 is 15.7 µM.

same assay, conditions: read-out: hGluN1^FA,TL/hGluN3A (100 × Idrug/Icontrol at 30 μM drug)

Question: How did the remaining activity at 30 µM turn out when COc1ccc(OCC(c2ccc(OC)cc2F)N2Cc3ccc(Br)cc3C2=O)cc1 (stereo not drawn) [EU1180-535, 6-Bromo-2-(1-(2-fluoro-4-methoxyphenyl)-2-(4-methoxyphenoxy)ethyl)isoindolin-1-one] was run?
Answer: The remaining activity at 30 µM was 83%.

Question: How did the remaining activity at 30 µM turn out when Cc1cccc(OCC(c2ccc(OC(C)C)cc2)N2Cc3ccc(F)cc3C2=O)n1 (stereo not drawn) [EU1180-512, 6-fluoro-2-(1-(4-isopropoxyphenyl)-2-((6-methylpyridin-2-yl)oxy)ethyl)isoindolin-1-one] was run?
Answer: Its remaining activity at 30 µM is 36%.

Question: Which remaining activity at 30 µM does the source give for COc1cc(F)c(C(COc2cccc(C)n2)N2Cc3cc(Br)ccc3C2=O)c(F)c1 (stereo not drawn) [EU1180-612, 5-Bromo-2-(1-(2,6-difluoro-4-methoxyphenyl)-2-((6-methylpyridin-2-yl)oxy)ethyl)isoindolin-1-one] here?
Answer: Its remaining activity at 30 µM is 79%.

Question: With Cc1cccc(OCC(c2ccc(OC(C)C)cc2)N2Cc3cc(Br)ccc3C2=O)n1 (stereo not drawn) [EU1180-515, 5-bromo-2-(1-(4-isopropoxyphenyl)-2-((6-methylpyridin-2-yl)oxy)ethyl)isoindolin-1-one] as the molecule, how does the remaining activity at 30 µM read?
Answer: The remaining activity at 30 µM was 100%.

Question: How did the remaining activity at 30 µM turn out when COc1ccc(OCC(c2ccc(OC(C)C)cc2)N2Cc3cc(Cl)ccc3C2=O)cc1 (stereo not drawn) [EU1180-559, 5-chloro-2-(1-(4-isopropoxyphenyl)-2-(4-methoxyphenoxy)ethyl)isoindolin-1-one] was run?
Answer: The remaining activity at 30 µM was 96%.

Question: COc1ccc(OCC(c2ccc(OC(C)C)cc2)N2Cc3cc(F)ccc3C2=O)cc1 (stereo not drawn) [EU1180-561, 5-fluoro-2-(1-(4-isopropoxyphenyl)-2-(4-methoxyphenoxy)ethyl)isoindolin-1-one] was tested. Which remaining activity at 30 µM did it give?
Answer: Its remaining activity at 30 µM is 88%.

Question: COc1ccc(OCC(c2ccc(OC(C)C)cc2)N2Cc3ccc(Br)cc3C2=O)cc1 (stereo not drawn) [EU1180-562, 6-bromo-2-(1-(4-isopropoxyphenyl)-2-(4-methoxyphenoxy)ethyl)isoindolin-1-one] was tested. Which remaining activity at 30 µM did it give?
Answer: The remaining activity at 30 µM was 98%.

Question: For COc1ccc(C(COc2cccc(C)n2)N2Cc3cc(F)ccc3C2=O)c(F)c1 (stereo not drawn) [EU1180-601, 5-Fluoro-2-(1-(2-fluoro-4-methoxyphenyl)-2-((6-methylpyridin-2-yl)oxy)ethyl)isoindolin-1-one], which remaining activity at 30 µM is on record?
Answer: Its remaining activity at 30 µM is 79%.

Question: Which remaining activity at 30 µM does the source give for CC(C)Oc1ccc(C(COc2ccc(OC(F)(F)F)cc2)N2Cc3ccc(C(F)(F)F)cc3C2=O)cc1 (stereo not drawn) [EU1180-539, 2-(1-(4-isopropoxyphenyl)-2-(4-(trifluoromethoxy)phenoxy)ethyl)-6-(trifluoromethyl)isoindolin-1-one] here?
Answer: Its remaining activity at 30 µM is 99%.

Question: Which remaining activity at 30 µM does the source give for COc1ccc(OCC(c2ccc(OC)cc2F)N2Cc3ccc(C(F)(F)F)cc3C2=O)cc1 (stereo not drawn) [EU1180-531, 2-(1-(2-Fluoro-4-methoxyphenyl)-2-(4-methoxyphenoxy)ethyl)-6-(trifluoromethyl)isoindolin-1-one] here?
Answer: The remaining activity at 30 µM was 99%.

Question: How did the remaining activity at 30 µM turn out when COc1ccc(OCC(c2ccc(OC)c(OC)c2)N2Cc3cc(Br)ccc3C2=O)cc1 (stereo not drawn) [EU1180-526, 5-Bromo-2-(1-(3,4-dimethoxyphenyl)-2-(4-methoxyphenoxy)ethyl)isoindolin-1-one] was run?
Answer: The remaining activity at 30 µM was 101%.

Question: With COc1ccc(OCC(c2ccc(OC)cc2)N2Cc3ccc(Br)cc3C2=O)cc1 (stereo not drawn) [EU1180-520, 6-Bromo-2-(2-(4-methoxyphenoxy)-1-(4-methoxyphenyl)ethyl)isoindolin-1-one] as the molecule, how does the remaining activity at 30 µM read?
Answer: The remaining activity at 30 µM was 64%.

Question: How did the remaining activity at 30 µM turn out when COc1ccc(C(COc2cccc(C)n2)N2Cc3ccc(Cl)cc3C2=O)cc1 (stereo not drawn) [EU1180-595, 6-Chloro-2-(1-(4-methoxyphenyl)-2-((6-methylpyridin-2-yl)oxy)ethyl)isoindolin-1-one] was run?
Answer: The remaining activity at 30 µM was 75%.

Question: COc1ccc(OCC(c2ccc(OC(C)C)cc2)N2Cc3ccc(Cl)cc3C2=O)cc1 (stereo not drawn) [EU1180-564, 6-chloro-2-(1-(4-isopropoxyphenyl)-2-(4-methoxyphenoxy)ethyl)isoindolin-1-one] was tested. Which remaining activity at 30 µM did it give?
Answer: Its remaining activity at 30 µM is 96%.

Question: For COc1ccc(OCC(c2ccc(OC)cc2F)N2Cc3cc(Br)ccc3C2=O)cc1 (stereo not drawn) [EU1180-534, 5-Bromo-2-(1-(2-fluoro-4-methoxyphenyl)-2-(4-methoxyphenoxy)ethyl)isoindolin-1-one], which remaining activity at 30 µM is on record?
Answer: Its remaining activity at 30 µM is 99%.

Question: With CCOc1ccc(OCC(c2ccc(OC(C)C)cc2)N2Cc3ccc(F)cc3C2=O)cc1 (stereo not drawn) [EU1180-590, 6-fluoro-2-(2-(4-ethoxyphenoxy)-1-(4-isopropoxyphenyl)ethyl)isoindolin-1-one] as the molecule, how does the remaining activity at 30 µM read?
Answer: The remaining activity at 30 µM was 35%.

Question: With COc1ccc(OCC(c2c(F)cc(OC)cc2F)N2Cc3ccc(F)cc3C2=O)cc1 (stereo not drawn) [EU1180-552, 2-(1-(2,6-Difluoro-4-methoxyphenyl)-2-(4-methoxyphenoxy)ethyl)-6-fluoroisoindolin-1-one] as the molecule, how does the remaining activity at 30 µM read?
Answer: The remaining activity at 30 µM was 70%.

Question: With CC(C)Oc1ccc(C(COc2ccc(C(F)(F)F)cc2)N2Cc3ccc(C(F)(F)F)cc3C2=O)cc1 (stereo not drawn) [EU1180-572, 2-(1-(4-isopropoxyphenyl)-2-(4-(trifluoromethyl)phenoxy)ethyl)-6-(trifluoromethyl)isoindolin-1-one] as the molecule, how does the remaining activity at 30 µM read?
Answer: Its remaining activity at 30 µM is 91%.

Question: How did the remaining activity at 30 µM turn out when COc1ccc(C(COc2cccc(C)n2)N2Cc3cc(F)ccc3C2=O)cc1 (stereo not drawn) [EU1180-598, 5-Fluoro-2-(1-(4-methoxyphenyl)-2-((6-methylpyridin-2-yl)oxy)ethyl)isoindolin-1-one] was run?
Answer: Its remaining activity at 30 µM is 89%.

Question: How did the remaining activity at 30 µM turn out when COc1ccc(OCC(c2ccc(OC(C)C)cc2)N2Cc3cc(Br)ccc3C2=O)cc1 (stereo not drawn) [EU1180-563, 5-bromo-2-(1-(4-isopropoxyphenyl)-2-(4-methoxyphenoxy)ethyl)isoindolin-1-one] was run?
Answer: Its remaining activity at 30 µM is 98%.

Question: Which remaining activity at 30 µM does the source give for COc1ccc(C(COc2cccc(C)n2)N2Cc3ccc(Br)cc3C2=O)c(F)c1 (stereo not drawn) [EU1180-607, 6-Bromo-2-(1-(2-fluoro-4-methoxyphenyl)-2-((6-methylpyridin-2-yl)oxy)ethyl)isoindolin-1-one] here?
Answer: Its remaining activity at 30 µM is 62%.

Question: For CC(C)Oc1ccc(C(COc2ccc(C(F)(F)F)cc2)N2Cc3ccc(Br)cc3C2=O)cc1 (stereo not drawn) [EU1180-577, 6-bromo-2-(1-(4-isopropoxyphenyl)-2-(4-(trifluoromethyl)phenoxy)ethyl)isoindolin-1-one], which remaining activity at 30 µM is on record?
Answer: Its remaining activity at 30 µM is 108%.

Question: With CC(C)Oc1ccc(C(COc2ccc(OC(F)(F)F)cc2)N2Cc3ccccc3C2=O)cc1 (stereo not drawn) [EU1180-538, 2-(1-(4-isopropoxyphenyl)-2-(4-(trifluoromethoxy)phenoxy)ethyl)isoindolin-1-one] as the molecule, how does the remaining activity at 30 µM read?
Answer: Its remaining activity at 30 µM is 99%.

Question: With COc1ccc(OCC(c2c(F)cc(OC)cc2F)N2Cc3ccc(Br)cc3C2=O)cc1 (stereo not drawn) [EU1180-550, 6-Bromo-2-(1-(2,6-difluoro-4-methoxyphenyl)-2-(4-methoxyphenoxy)ethyl)isoindolin-1-one] as the molecule, how does the remaining activity at 30 µM read?
Answer: Its remaining activity at 30 µM is 93%.

Question: CCOc1ccc(OCC(c2ccc(OC(C)C)cc2)N2Cc3ccc(Br)cc3C2=O)cc1 (stereo not drawn) [EU1180-592, 6-bromo-2-(2-(4-ethoxyphenoxy)-1-(4-isopropoxyphenyl)ethyl)isoindolin-1-one] was tested. Which remaining activity at 30 µM did it give?
Answer: Its remaining activity at 30 µM is 78%.

Question: With CCOc1ccc(OCC(c2ccc(OC(C)C)cc2)N2Cc3cc(F)ccc3C2=O)cc1 (stereo not drawn) [EU1180-591, 5-fluoro-2-(2-(4-ethoxyphenoxy)-1-(4-isopropoxyphenyl)ethyl)isoindolin-1-one] as the molecule, how does the remaining activity at 30 µM read?
Answer: Its remaining activity at 30 µM is 90%.

Question: Which remaining activity at 30 µM does the source give for COc1ccc(OCC(c2ccc(OC(C)C)cc2)N2Cc3ccc(F)cc3C2=O)cc1 (stereo not drawn) [EU1180-560, 6-fluoro-2-(1-(4-isopropoxyphenyl)-2-(4-methoxyphenoxy)ethyl)isoindolin-1-one] here?
Answer: Its remaining activity at 30 µM is 23%.

Question: With CC(C)Oc1ccc(C(COc2ccc(OC(F)(F)F)cc2)N2Cc3ccc(F)cc3C2=O)cc1 (stereo not drawn) [EU1180-542, 6-fluoro-2-(1-(4-isopropoxyphenyl)-2-(4-(trifluoromethoxy)phenoxy)ethyl)isoindolin-1-one] as the molecule, how does the remaining activity at 30 µM read?
Answer: The remaining activity at 30 µM was 98%.
